Laboratory results published in PMC6273584, “Synthesis of Thiazolo[5,4-f]quinazolin-9(8H)-ones as Multi-Target Directed Ligands of Ser/Thr Kinases” (Molecules, 2016).
Where two headings read alike, the source gives them in different places.

Experiments:
CDK5/p25 = biological target: T1, CDK5/p25 (Homo sapiens, UniProt Q00535); assay: In vitro kinase assay CDK5/p25, [γ-33P]ATP, histone H1 substrate; format: biochemical
T1 construct: made in house
Protocol: (§1) It was also tested as positive control and its IC50 values were compared to those obtained for the compounds under study.
(§2) Buffer A: MgCl2 (10 mM), 1 mM ethylene glycol-bis(2-aminoethylether)-N,N,N’,N’- tetraacetic acid (EGTA), 1 mM dithiothreitol (DTT), 25 mM Tris-HCl pH 7.5, 50 μg heparin/mL. Buffer B: β-Glycerophosphate (60 mM), 30 mM p-nitrophenylphosphate, 25 mM 3-(N-morpholino) propanesulfonic acid (Mops) (pH 7.2), 5 mM EGTA, 15 mM MgCl2, 1 mM DTT, 0.1 mM sodium vanadate.
(§3) Blank values were substracted and activities expressed in % of the maximal activity, i.e., in the absence of inhibitors. Controls were performed with appropriate dilutions of dimethylsulfoxide (DMSO). IC50 values were calculated from dose-response curves established by Sigma-Plot graphs. The GSK-3, CK1, DYRK1A and CLK1 peptide substrates were obtained from Proteogenix (Oberhausbergen, France).
(§4) CDK5/p25. (Human, recombinant) was prepared as previously described. […] ATP (3000 Ci/mmol; 10 mCi/mL) in a final volume of 30 μL. After 30 min incubation at 30 °C, 25 μL aliquots of supernatant were spotted onto sheets of P81 phosphocellulose paper (Whatman) and 20 s later, the filters were washed eight times (for at least 5 min each time) in a solution of 10 mL phosphoric acid/L of water. The wet filters were counted in the presence of 1 mL ACS (Amersham, UK) scintillation fluid.

CK1δ/ε = assay: In vitro kinase assay CK1δ/ε, CK1-specific peptide substrate; format: biochemical, Porcine
Protocol: as §1, §2, §3, §4
CK1δ/ε. (Porcine brain, native) was assayed as described for CDK5/p25 but using the CK1-specific peptide substrate […]pSAYSITA [37].

DYRK1A [1] = biological target: T2, DYRK1A (Rattus norvegicus, UniProt Q63470); assay: In vitro kinase assay DYRK1A, Woodtide substrate; format: biochemical
Protocol: as §1, §2, §3, §4

GSK-3α/β = assay: In vitro kinase assay GSK-3α/β, GS-1 peptide substrate; format: biochemical, Porcine
Protocol: as §1, §2, §3, §4
GSK-3α/β. (Porcine brain, native) was assayed, as described for CDK5/p25 but in buffer A and using a GSK-3 specific substrate (GS-1: […]pSEDEEE) (pS stands for phosphorylated serine).

CLK1 [2] = biological target: T3, CLK1 (Homo sapiens, UniProt P49759); conditions: read-out: CLK1 IC50, 15 μM ATP, 30 min, 30 °C, triplicate
T3 sequence (P49759 whole entry): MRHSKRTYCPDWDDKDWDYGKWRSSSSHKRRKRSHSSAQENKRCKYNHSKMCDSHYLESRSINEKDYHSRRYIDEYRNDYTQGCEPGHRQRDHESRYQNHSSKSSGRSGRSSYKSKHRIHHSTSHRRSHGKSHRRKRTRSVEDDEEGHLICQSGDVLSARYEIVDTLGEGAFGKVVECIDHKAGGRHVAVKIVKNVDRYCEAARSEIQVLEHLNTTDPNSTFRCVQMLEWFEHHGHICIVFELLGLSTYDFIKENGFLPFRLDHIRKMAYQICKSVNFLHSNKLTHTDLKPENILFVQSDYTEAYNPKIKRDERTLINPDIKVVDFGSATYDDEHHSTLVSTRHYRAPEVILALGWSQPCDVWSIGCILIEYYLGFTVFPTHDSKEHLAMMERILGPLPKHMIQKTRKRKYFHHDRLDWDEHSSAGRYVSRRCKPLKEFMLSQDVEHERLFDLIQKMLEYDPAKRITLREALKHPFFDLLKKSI

CLK1 [3] = biological target: T3, CLK1; assay: biochemical
DYRK1A [4] = biological target: T2, DYRK1A; assay: DYRK1A inhibition of earlier compounds I and II (Figure 2); format: biochemical; conditions: list of targeted kinases extended for earlier compounds
CDK1 = system: CDK1; parameters: method as in PMID 17981370, PMID 16644220; conditions: Figure 2; earlier work; cited from earlier work
[5] = 15 μM ATP, 30 min, 30 °C, triplicate, <50% inhibition at 10 μM = IC50 >10 μM
[6] = 15 μM ATP, 30 min, 30 °C, triplicate, <50% inhibition at 10 μM = IC50 >10 μM, read-out: DYRK1A IC50

T1 sequence (Q00535 whole entry): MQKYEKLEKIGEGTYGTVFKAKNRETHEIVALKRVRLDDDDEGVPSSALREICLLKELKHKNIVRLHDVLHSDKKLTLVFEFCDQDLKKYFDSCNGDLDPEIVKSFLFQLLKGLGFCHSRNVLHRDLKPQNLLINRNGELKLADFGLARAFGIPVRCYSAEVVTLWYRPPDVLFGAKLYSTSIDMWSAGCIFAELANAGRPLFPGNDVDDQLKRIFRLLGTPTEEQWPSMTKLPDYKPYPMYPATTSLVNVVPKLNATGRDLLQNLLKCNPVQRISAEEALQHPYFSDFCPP
T1 sequence (Q15078 99-307 partner limits assumed): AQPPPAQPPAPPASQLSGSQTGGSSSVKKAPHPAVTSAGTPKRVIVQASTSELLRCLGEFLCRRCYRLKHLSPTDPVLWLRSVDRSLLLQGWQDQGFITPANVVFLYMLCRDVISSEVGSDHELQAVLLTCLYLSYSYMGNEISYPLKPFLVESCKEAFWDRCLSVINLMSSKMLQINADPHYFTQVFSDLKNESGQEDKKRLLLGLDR

Row | Structure (SMILES) | IC50 (CDK5/p25; [5]) | IC50 (CK1δ/ε; [5]) | IC50 (DYRK1A [1]; [6]) | IC50 (GSK-3α/β) | IC50 (CLK1 [2]) | IC50 (CDK5/p25) | IC50 (DYRK1A [1]) | IC50 (CLK1 [3]) | IC50 (GSK-3α/β; [5]) | DYRK1A IC50 (DYRK1A [4]) | IC50 (DYRK1A [4]) | CDK1 IC50 (CDK1) | IC50 (CDK1) | IC50 (CK1δ/ε)
1 | COC(=N)c1nc2ccc3ncn(CCN(C)C)c(=O)c3c2s1 [Compound 12i, Methyl 8-[(3-dimethylamino)ethyl]-9-oxo-8,9-dihydrothiazolo[5,4-f]quinazoline-2-carbimidate] | > 10000 nM | > 10000 nM | 1000 nM | 1800 nM | 1800 nM |  |  |  |  |  |  |  |  | 
2 | CC(C)n1cnc2ccc3nc(C(=N)OCc4ccccc4)sc3c2c1=O [Compound 13d, Benzyl 8-isopropyl-9-oxo-8,9-dihydro[1, 3]thiazolo[5,4-f]quinazoline-2-carbimidate] | > 10000 nM | > 10000 nM |  | 57 nM | 270 nM |  |  |  |  |  |  |  |  | 
3 | COCCCn1cnc2ccc3nc(C(=N)OCc4ccccc4)sc3c2c1=O [Compound 13c, Benzyl 8-(3-methoxypropyl)-9-oxo-8,9-dihydrothiazolo[5,4-f]quinazoline-2-carbimidate] |  | > 10000 nM |  | 110 nM |  | > 10000 nM | 160 nM | 480 nM |  |  |  |  |  | 
4 | N=C(OCc1ccccc1)c1nc2ccc3ncn(C4CC4)c(=O)c3c2s1 [Compound 13a, Benzyl 8-cyclopropyl-9-oxo-8,9-dihydrothiazolo[5,4-f]quinazoline-2-carbimidate] |  | > 10000 nM |  |  |  | > 10000 nM | 60 nM | 60 nM | 100 nM |  |  |  |  | 
5 | N#Cc1nc2ccc3ncn(C4CC4)c(=O)c3c2s1 [Compound 11a, 8-Cyclopropyl-9-oxo-8,9-dihydrothiazolo[5,4-f]quinazoline-2-carbonitrile] |  | > 10000 nM |  | 3300 nM |  | > 10000 nM | 3300 nM | 1100 nM |  |  |  |  |  | 
6 | CCOC(=N)c1nc2ccc3ncn(CCCOC)c(=O)c3c2s1 [Compound 14c, Ethyl 8-(3-methoxypropyl)-9-oxo-8,9-dihydrothiazolo[5,4-f]quinazoline-2-carboximidoate] |  | > 10000 nM |  | 170 nM |  | > 10000 nM | 370 nM | 490 nM |  |  |  |  |  | 
7 | COC(=N)c1nc2ccc3ncn(-c4ccc(C)cc4)c(=O)c3c2s1 [Compound 12k, Methyl 8-(p-tolyl)-9-oxo-8,9-dihydrothiazolo[5,4-f]quinazoline-2-carbimidate] |  | > 10000 nM |  | 510 nM |  | > 10000 nM | 380 nM | 880 nM |  |  |  |  |  | 
8 | COC(=N)c1nc2ccc3ncn(C4CCC4)c(=O)c3c2s1 [Compound 12f, Methyl 8-cyclobutyl-9-oxo-8,9-dihydrothiazolo[5,4-f]quinazoline-2-carbimidate] |  | > 10000 nM |  | 160 nM |  | > 10000 nM | 130 nM | 91 nM |  |  |  |  |  | 
9 | N=C(OCc1ccccc1)c1nc2ccc3ncn(C4CCCC4)c(=O)c3c2s1 [Compound 13e, Benzyl 8-cyclopentyl-9-oxo-8,9-dihydrothiazolo[5,4-f]quinazoline-2-carbimidate] |  | > 10000 nM |  | 28 nM |  | > 10000 nM | 62 nM | 320 nM |  |  |  |  |  | 
10 | N=C(OCc1ccccc1)c1nc2ccc3ncn(C4CCCCC4)c(=O)c3c2s1 [Compound 13g, Benzyl 8-cyclohexyl-9-oxo-8,9-dihydrothiazolo[5,4-f]quinazoline-2-carbimidate] |  | > 10000 nM |  | 83 nM |  | > 10000 nM | 280 nM | 1300 nM |  |  |  |  |  | 
11 | COCCn1cnc2ccc3nc(C(=N)OC)sc3c2c1=O [Compound 12b, Methyl 8-(2-methoxyethyl)-9-oxo-8,9-dihydrothiazolo[5,4-f]quinazoline-2-carbimidate] | > 10000 nM | > 10000 nM | 390 nM | 1200 nM | 510 nM |  |  |  |  |  |  |  |  | 
12 | CCn1cnc2ccc3nc(C(=N)OCc4ccccc4)sc3c2c1=O [II] |  |  |  |  |  |  |  |  |  | micromolar | 1500 nM | micromolar range | 1300 nM | 
13 | COC(=N)c1nc2ccc3ncn(C)c(=O)c3c2s1 [Compound 12n, Methyl 8-methyl-9-oxo-8,9-dihydrothiazolo[5,4-f]quinazoline-2-carbimidate] |  | > 10000 nM |  | 1700 nM |  | > 10000 nM | 180 nM | 80 nM |  |  |  |  |  | 
14 | CC(C)OC(=N)c1nc2ccc3ncn(C4CC4)c(=O)c3c2s1 [Compound 15a, Isopropyl 8-cyclopropyl-9-oxo-8,9-dihydrothiazolo[5,4-f]quinazoline-2-carbimidate] |  | > 10000 nM |  | 420 nM |  | > 10000 nM | 420 nM | 43 nM |  |  |  |  |  | 
15 | COCCn1cnc2ccc3nc(C(=N)OC(C)C)sc3c2c1=O [Compound 15b, Isopropyl 8-(2-methoxyethyl)-9-oxo-8,9-dihydro[1, 3]thiazolo[5,4-f]quinazoline-2-carboximidate] | > 10000 nM | > 10000 nM | 3900 nM | 2500 nM | 2100 nM |  |  |  |  |  |  |  |  | 
16 | COCCn1cnc2ccc3nc(C#N)sc3c2c1=O [Compound 11b, 8-(2-Methoxyethyl)-9-oxo-8,9-dihydrothiazolo[5,4-f]quinazoline-2-carbonitrile] |  | > 10000 nM |  |  |  | > 10000 nM | 7800 nM | 4100 nM | ≥ 10000 nM |  |  |  |  | 
17 | N=C(OCc1ccccc1)c1nc2ccc3ncn(C4CCC4)c(=O)c3c2s1 [Compound 13f, Benzyl 8-cyclobutyl-9-oxo-8,9-dihydrothiazolo[5,4-f]quinazoline-2-carbimidate] |  | > 10000 nM |  | 71 nM |  | > 10000 nM | 59 nM | 71 nM |  |  |  |  |  | 
18 | COC(=N)c1nc2ccc3ncn(CCN4CCOCC4)c(=O)c3c2s1 [Compound 12j, Methyl 8-(2-morpholinoethyl)-9-oxo-8,9-dihydrothiazolo[5,4-f]quinazoline-2-carbimidate] |  | > 10000 nM |  | 1200 nM |  | > 10000 nM | 200 nM | 690 nM |  |  |  |  |  | 
19 | COC(=N)c1nc2ccc3ncn(C(C)C)c(=O)c3c2s1 [Compound 12d, Methyl 8-isopropyl-9-oxo-8,9-dihydrothiazolo[5,4-f]quinazoline-2-carbimidate] |  |  |  | 41 nM |  | 3000 nM | 140 nM | 160 nM |  |  |  |  |  | 5400 nM
20 | COC(=N)c1nc2ccc3ncn(C4CCCCC4)c(=O)c3c2s1 [Compound 12g, Methyl 8-cyclohexyl-9-oxo-8,9-dihydrothiazolo[5,4-f]quinazoline-2-carbimidate] |  | > 10000 nM |  | 30 nM |  | 1800 nM | 170 nM | 380 nM |  |  |  |  |  | 
21 | COCCCn1cnc2ccc3nc(C(=N)OC(C)C)sc3c2c1=O [Compound 15c, Isopropyl 8-(3-methoxypropyl)-9-oxo-8,9-dihydro[1, 3]thiazolo[5,4-f]quinazoline-2-carboximidate] | > 10000 nM | > 10000 nM | 950 nM | 270 nM | 1200 nM |  |  |  |  |  |  |  |  | 
22 | CN(C)n1cnc2ccc3nc(C(=N)OCc4ccccc4)sc3c2c1=O [Compound 13h, Benzyl 8-dimethylamino-9-oxo-8,9-dihydrothiazolo[5,4-f]quinazoline-2-carbimidate] |  | > 10000 nM |  | 150 nM |  | > 10000 nM | 210 nM | 1400 nM |  |  |  |  |  | 
